Source: patent US9920339B2, “Methods, reagents and cells for biosynthesizing compounds” (INVISTA North America S.á r.l., priority 2014, dated 2018)

How the values were obtained:
[1] = system: Chromobacterium violaceum ω-transaminase (SEQ ID NO: 8); assay: ω-transaminase enzyme activity assay, amine substrate plus pyruvate to L-alanine (cell free extract); format: biochemical; details: forward (amine-forming) direction, inferred from the reverse assay
[2] = system: Pseudomonas aeruginosa ω-transaminase (SEQ ID NO: 9); assay: as above; format: biochemical; details: for accepted as substrate, concluded from the reversibility of the ω-transaminase activity: forward (amine-forming) direction, inferred from the reverse assay; for accepted as substrate as confirmed against the empty vector control: reverse direction, 10 mM substrate, 10 mM pyruvate, 100 μM pyridoxyl 5′ phosphate, pH 7.5, 25° C., 4 h, L-alanine by RP-HPLC
Description: (§1) A nucleotide sequence encoding an N-terminal His-tag was added to the Chromobacterium violaceum, Pseudomonas aeruginosa, Pseudomonas syringae, Rhodobacter sphaeroide, Escherichia coli and Vibrio fluvialis genes encoding the ω-transaminases of SEQ ID NOs: 8-13, respectively (see FIG. 10) such that N-terminal HIS tagged ω-transaminases could be produced. The modified genes were cloned into a pET21a expression vector under the T7 promoter. Each expression vector was transformed into a BL21[DE3] E. coli host. Each resulting recombinant E. coli strain were cultivated at 37° C. in a 250 mL shake flask culture containing 50 mL LB media and antibiotic selection pressure, with shaking at 230 rpm. Each culture was induced overnight at 16° C. using 1 mM IPTG.
(§2) The pellet from each induced shake flask culture was harvested via centrifugation. Each pellet was resuspended and lysed via sonication. The cell debris was separated from the supernatant via centrifugation and the cell free extract was used immediately in enzyme activity assays.
(§3) Enzyme activity assays in the reverse direction (i.e., 5-aminopentanol to 5-oxopentanol) were performed in a buffer composed of a final concentration of 50 mM HEPES buffer (pH=7.5), 10 mM 5-aminopentanol, 10 mM pyruvate, and 100 μM pyridoxyl 5′ phosphate. Each enzyme activity assay reaction was initiated by adding cell free extract of the ω-transaminase gene product or the empty vector control to the assay buffer containing the 5-aminopentanol and then incubated at 25° C. for 4 h, with shaking at 250 rpm. The formation of L-alanine was quantified via RP-HPLC.
as §1, with “and” for “Rhodobacter sphaeroide,”, “coli” for “coli and Vibrio fluvialis”, “8-10 and 12,” for “8-13,”
as §3, with “cadaverine” for “5-aminopentanol”, “5-aminopentanal)” for “5-oxopentanol)”, “cadaverine,” for “5-aminopentanol,”
(§4) The activity of the N-terminal His-tagged ω-transaminases of SEQ ID NOs: 8-13 (see Example 3, and FIG. 10) for converting 1-aminopentane to pentanal was assayed using a buffer composed of a final concentration of 50 mM HEPES buffer (pH=7.5), 10 mM 1-aminopentane, 10 mM pyruvate and 100 μM pyridoxyl 5′ phosphate. Each enzyme activity assay reaction was initiated by adding a cell free extract of the ω-transaminase or the empty vector control to the assay buffer containing the 1-aminopentane then incubated at 25° C. for 4 h, with shaking at 250 rpm. The formation of L-alanine was quantified via RP-HPLC.
(§5) The activity of the N-terminal His-tagged ω-transaminases of SEQ ID NOs: 8-13 (see Example 3, and FIG. 10) for converting 1-aminoheptane to heptanal was assayed using a buffer composed of a final concentration of 50 mM HEPES buffer (pH=7.5), 10 mM 1-aminoheptane, 10 mM pyruvate and 100 μM pyridoxyl 5′ phosphate. […]

[3] = target: T1, Escherichia coli ω-transaminase (SEQ ID NO: 12) (Escherichia coli, UniProt P42588); assay: as above; format: biochemical; details: for accepted as substrate, concluded from the reversibility of the ω-transaminase activity: forward (amine-forming) direction, inferred from the reverse assay; for accepted as substrate as confirmed against the empty vector control: reverse direction, 10 mM substrate, 10 mM pyruvate, 100 μM pyridoxyl 5′ phosphate, pH 7.5, 25° C., 4 h, L-alanine by RP-HPLC
T1 construct: His-tag (N); made in house; host or cells: E. coli BL21[DE3], pET21a
T1 sequence (P42588 whole entry): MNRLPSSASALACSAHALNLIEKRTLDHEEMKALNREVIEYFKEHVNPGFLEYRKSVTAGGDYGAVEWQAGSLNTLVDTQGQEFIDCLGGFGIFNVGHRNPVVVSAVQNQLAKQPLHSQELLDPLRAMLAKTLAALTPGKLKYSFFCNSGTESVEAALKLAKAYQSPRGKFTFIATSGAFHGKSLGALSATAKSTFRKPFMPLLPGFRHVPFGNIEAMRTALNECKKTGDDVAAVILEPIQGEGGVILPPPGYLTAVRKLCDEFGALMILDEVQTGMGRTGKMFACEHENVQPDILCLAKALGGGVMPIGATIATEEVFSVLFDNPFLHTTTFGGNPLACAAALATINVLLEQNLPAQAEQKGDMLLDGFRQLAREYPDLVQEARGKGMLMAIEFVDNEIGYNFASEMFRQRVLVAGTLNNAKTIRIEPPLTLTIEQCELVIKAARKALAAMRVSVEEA
Description: as §1, §2, §3
as §1, with “and” for “Rhodobacter sphaeroide,”, “coli” for “coli and Vibrio fluvialis”, “8-10 and 12,” for “8-13,”
as §3, with “cadaverine” for “5-aminopentanol”, “5-aminopentanal)” for “5-oxopentanol)”, “cadaverine,” for “5-aminopentanol,”
as §4, with “8, 10-13” for “8-13”, “N5-acetyl-1,5-diaminopentane” for “1-aminopentane”, “N5-acetyl-5-aminopentanal” for “pentanal”, “N5-acetyl-1,5-diaminopentane,” for “1-aminopentane,”
as §5, with “1-aminopentane” for “1-aminoheptane”, “pentanal” for “heptanal”, “1-aminopentane,” for “1-aminoheptane,”

[4] = system: Pseudomonas syringae ω-transaminase (SEQ ID NO: 10); assay: as above; format: biochemical; details: for accepted as substrate, concluded from the reversibility of the ω-transaminase activity: forward (amine-forming) direction, inferred from the reverse assay; for accepted as substrate as confirmed against the empty vector control: reverse direction, 10 mM substrate, 10 mM pyruvate, 100 μM pyridoxyl 5′ phosphate, pH 7.5, 25° C., 4 h, L-alanine by RP-HPLC
Description: as §1, §2, §3
as §1, with “and” for “Rhodobacter sphaeroide,”, “coli” for “coli and Vibrio fluvialis”, “8-10 and 12,” for “8-13,”
as §3, with “cadaverine” for “5-aminopentanol”, “5-aminopentanal)” for “5-oxopentanol)”, “cadaverine,” for “5-aminopentanol,”
as §4, with “8, 10-13” for “8-13”, “N5-acetyl-1,5-diaminopentane” for “1-aminopentane”, “N5-acetyl-5-aminopentanal” for “pentanal”, “N5-acetyl-1,5-diaminopentane,” for “1-aminopentane,”
as §5, with “1-aminopentane” for “1-aminoheptane”, “pentanal” for “heptanal”, “1-aminopentane,” for “1-aminoheptane,”

[5] = system: Rhodobacter sphaeroides ω-transaminase (SEQ ID NO: 11); assay: as above; format: biochemical; details: for accepted as substrate, concluded from the reversibility of the ω-transaminase activity: forward (amine-forming) direction, inferred from the reverse assay; for accepted as substrate as confirmed against the empty vector control: reverse direction, 10 mM substrate, 10 mM pyruvate, 100 μM pyridoxyl 5′ phosphate, pH 7.5, 25° C., 4 h, L-alanine by RP-HPLC
Description: as §1, §2, §3
as §4, with “8, 10-13” for “8-13”, “N5-acetyl-1,5-diaminopentane” for “1-aminopentane”, “N5-acetyl-5-aminopentanal” for “pentanal”, “N5-acetyl-1,5-diaminopentane,” for “1-aminopentane,”
as §4
as §4, with “1-aminoheptane” for “1-aminopentane”, “heptanal” for “pentanal”, “1-aminoheptane,” for “1-aminopentane,”

[6] = system: Vibrio fluvialis ω-transaminase (SEQ ID NO: 13); assay: as above; format: biochemical; details: for accepted as substrate, concluded from the reversibility of the ω-transaminase activity: forward (amine-forming) direction, inferred from the reverse assay; for accepted as substrate as confirmed against the empty vector control: reverse direction, 10 mM substrate, 10 mM pyruvate, 100 μM pyridoxyl 5′ phosphate, pH 7.5, 25° C., 4 h, L-alanine by RP-HPLC
Description: as §1, §2, §3
as §4, with “8, 10-13” for “8-13”, “N5-acetyl-1,5-diaminopentane” for “1-aminopentane”, “N5-acetyl-5-aminopentanal” for “pentanal”, “N5-acetyl-1,5-diaminopentane,” for “1-aminopentane,”
as §4
as §4, with “1-aminoheptane” for “1-aminopentane”, “heptanal” for “pentanal”, “1-aminoheptane,” for “1-aminopentane,”

[7] = target: gene product of ygjG (Escherichia coli, UniProt P42588); details: Samsonova et al., 2003; cited from earlier work
Chain of gene product of ygjG (P42588 whole entry): as above

[8] = system: Chromobacterium violaceum ω-transaminase (SEQ ID NO: 8); assay: ω-transaminase enzyme activity assay, amine substrate plus pyruvate to L-alanine (cell free extract); format: biochemical; details: reverse direction, 10 mM substrate, 10 mM pyruvate, 100 μM pyridoxyl 5′ phosphate, pH 7.5, 25° C., 4 h, L-alanine by RP-HPLC
Description: A nucleotide sequence encoding an N-terminal His-tag was added to the genes from Chromobacterium violaceum and Rhodobacter sphaeroides encoding the ω-transaminases of SEQ ID NOs: 8 and 10 respectively (see FIG. 10) such that N-terminal HIS tagged ω-transaminases could be produced. Each of the resulting modified genes was cloned into a pET21a expression vector under control of the T7 promoter and each expression vector was transformed into a BL21[DE3] E. coli host. The resulting recombinant E. coli strains were cultivated at 37° C. in a 250 mL shake flask culture containing 50 mL LB media and antibiotic selection pressure, with shaking at 230 rpm. Each culture was induced overnight at 16° C. using 1 mM IPTG.
as §2
as §3, with “5-aminopentanoate” for “5-aminopentanol”, “glutarate semialdehyde)” for “5-oxopentanol)”, “5-aminopentanoate,” for “5-aminopentanol,”, “pyruvate” for “pyruvate,”, “and” for “and then”, “L-alanine from pyruvate” for “L-alanine”
as §1, §3
as §1, with “and” for “Rhodobacter sphaeroide,”, “coli” for “coli and Vibrio fluvialis”, “8-10 and 12,” for “8-13,”
Enzyme activity assays in the reverse direction (i.e., cadaverine to 5-aminopentanal) were performed in a buffer composed of a final concentration of 50 mM HEPES buffer (pH=7.5), 10 mM cadaverine, 10 mM pyruvate, and 100 μM pyridoxyl 5′ phosphate. […]

[9] = system: acetylputrescine deacetylase from Micrococcus luteus K-11; details: Suzuki et al., 1986; cited from earlier work

## O=CCCCCO [5-oxopentanol]
[1]
  accepted as substrate, concluded from the reversibility of the ω-transaminase activity: accept
[2]
  accepted as substrate, concluded from the reversibility of the ω-transaminase activity: accept
[3]
  accepted as substrate, concluded from the reversibility of the ω-transaminase activity: accept
[4]
  accepted as substrate, concluded from the reversibility of the ω-transaminase activity: accept
[5]
  accepted as substrate, concluded from the reversibility of the ω-transaminase activity: accept
[6]
  accepted as substrate, concluded from the reversibility of the ω-transaminase activity: accept

## NCCCCNCCCN [spermidine]
[7]
  accepted as diamine substrate: accepts

## NCCCCC=O [5-aminopentanal]
[1]
  accepted as substrate, concluded from the reversibility of the ω-transaminase activity: accept
[2]
  accepted as substrate, concluded from the reversibility of the ω-transaminase activity: accept
[3]
  accepted as substrate, concluded from the reversibility of the ω-transaminase activity: accept
[4]
  accepted as substrate, concluded from the reversibility of the ω-transaminase activity: accept

## NCCCCC(=O)O [5-aminopentanoate]
[8]
  accepted as substrate as confirmed against the empty vector control: accepted

## CC(=O)NCCCCNCCCN [N^8-acetylspermidine]
[9]
  accepted as substrate: accepts

## NCCCCCO [5-aminopentanol]
[2]
  accepted as substrate as confirmed against the empty vector control: accepted
[3]
  accepted as substrate as confirmed against the empty vector control: accepted
[4]
  accepted as substrate as confirmed against the empty vector control: accepted
[5]
  accepted as substrate as confirmed against the empty vector control: accepted
[6]
  accepted as substrate as confirmed against the empty vector control: accepted
[8]
  accepted as substrate as confirmed against the empty vector control: accepted

## CCCCCCCN [1-aminoheptane]
[2]
  accepted as substrate as confirmed against the empty vector control: accepted
[3]
  accepted as substrate as confirmed against the empty vector control: accepted
[4]
  accepted as substrate as confirmed against the empty vector control: accepted
[5]
  accepted as substrate as confirmed against the empty vector control: accepted
[6]
  accepted as substrate as confirmed against the empty vector control: accepted
[8]
  accepted as substrate as confirmed against the empty vector control: accepted

## CC(=O)NCCCCN [acetylputrescine]
[9]
  accepted as substrate: accepts

## CC(=O)NCCCCCN [N5-acetyl-1,5-diaminopentane]
[3]
  accepted as substrate as confirmed against the empty vector control: accepted
[4]
  accepted as substrate as confirmed against the empty vector control: accepted
[5]
  accepted as substrate as confirmed against the empty vector control: accepted
[6]
  accepted as substrate as confirmed against the empty vector control: accepted
[8]
  accepted as substrate as confirmed against the empty vector control: accepted

## NCCCCN [putrescine]
[7]
  accepted as diamine substrate: accepts

## CC(=O)NCCCCC=O [N5-acetyl-5-aminopentanal]
[1]
  accepted as substrate, concluded from the reversibility of the ω-transaminase activity: accept
[3]
  accepted as substrate, concluded from the reversibility of the ω-transaminase activity: accept
[4]
  accepted as substrate, concluded from the reversibility of the ω-transaminase activity: accept
[5]
  accepted as substrate, concluded from the reversibility of the ω-transaminase activity: accept
[6]
  accepted as substrate, concluded from the reversibility of the ω-transaminase activity: accept

## CC(=O)NCCCCCN [acetylcadaverine]
[9]
  accepted as substrate: accepts

## CCCCCN [1-aminopentane]
[2]
  accepted as substrate as confirmed against the empty vector control: accepted
[3]
  accepted as substrate as confirmed against the empty vector control: accepted
[4]
  accepted as substrate as confirmed against the empty vector control: accepted
[5]
  accepted as substrate as confirmed against the empty vector control: accepted
[6]
  accepted as substrate as confirmed against the empty vector control: accepted
[8]
  accepted as substrate as confirmed against the empty vector control: accepted
